Values of other authors as cited in US20030072802A1, “Sustained release topiramate” (R.T. Alamo Ventures, Inc., priority 2001, published 2003).

Assays:
[1] = system: state-dependent sodium channel (cultured neurons)
[2] = formulations currently in use; after a 200 mg dose
[3] = system: kainate/AMPA subtype of excitatory amino acid (glutamate) receptor

CC1(C)OC2COC3(COS(N)(=O)=O)OC(C)(C)OC3C2O1 [topiramate, 2,3:4,5-bis-Q-(1-methylethylidene)-p-D-fructopyranose sulfamate]
effect on the activity of NMDA at the NMDA receptor subtype (NMDA receptor subtype): no apparent effect | effect on action potentials elicited repetitively by sustained depolarization [1]: blocked by topiramate in a time-dependent manner | effect on GABA-induced flux of chloride ions into neurons (GABAA receptors): enhances the ability of GABA to induce a flux of chloride ions into neurons | effect on the duration of the channel open time (GABAA receptors): nor did topiramate increase the duration of the channel open time | effect on the frequency at which GABA activates GABAA receptors (GABAA receptors): increases the frequency | sensitivity of the GABA-potentiating effect to flumazenil (benzodiazepine antagonist) (GABAA receptors): not blocked by flumazenil | half life of plasma concentration [2]: about 21 hours | time of peak topiramate plasma concentration [2]: about 2 hours | effect on the ability of kainate to activate the kainate/AMPA receptor [3]: antagonizes the ability of kainate to activate
